Results from patent publication US20230271940A1, “HETEROARYL SUBSTITUTED 3-(1-OXOISOINDOLIN-2-YL)PIPERIDINE-2,6-DIONE DERIVATIVES AND USES THEREOF” (Novartis AG, priority 2020, published 2023).

target: IKZF2 (Homo sapiens, UniProt Q96SW2+Q9UKS7); test: Prolabel quantification of IKZF2 protein levels in 293GT cells; format: cell-based; settings: not given
Experimental: (§1) The Prolabel system from DiscoverX was used to develop high-throughput and quantitative assays to measure changes in IKZF1, IKZF2 and GSPT1 protein levels in response to compounds. The prolabel tag was derived from the alpha fragment of beta galactosidase and has the following protein sequence: mssnslavvlqadwenpgvtqlnrlaahppfaswrnseeartdipsqqlislnge. The complementary fragment of beta-galactosidase (from DiscoverX), is added to the prolabel tag to form an active beta galactosidase enzyme whose activity can be precisely measured. In this way, the levels of a fusion protein with the prolabel tag can be quantified in cell lysates.
Lentiviral vectors, based on the Invitrogen pLenti6.2/V5 DEST backbone, were constructed that placed the prolabel tag upstream of IKZF1, IKZF2 or GSPT1 and expressed the fusion protein from a CMV promoter.
To ensure moderate and consistent expression of the prolabel fusion proteins across all cells in the population, stable cell lines were constructed from cells expressing a single copy of the construct. Lentivirus packaged with the constructs was made using the Virapower kit from Invitrogen.
The levels of prolabel tagged fusion proteins in compound treated cell lines were measured as follows:
Day 1, Cells were diluted to 1.0×10^6 cells/ml in normal growth medium. 17.5 μL of cells were plated in each well of a solid white 384 well plate. Plates were incubated overnight in a 37° C. tissue culture incubator.
Day 2, Serial dilutions of compounds were made in 384 well plates from 10 mM stocks. 15 μL of DMSO was added to each well of a 384 well plate. In the first column, 15 μL of stock compound was added. The solution was mixed and 15 μL was transferred to the next column. This was repeated until 20 two-fold dilutions were prepared. 2.5 μL of diluted compounds were transferred into 60 μL of cell culture medium in another 384 well plate, and mixed well. […] of this mixture was added to the plated cells. The final DMSO concentration was 0.5% and the highest concentration of compound was 50 μM. Plates were incubated overnight (e.g., about 14 h, 18 h, or 24 h) in a 37° C. tissue culture incubator.
Day 3, Plates were removed from the incubator and allowed to equilibrate at r.t. for 30 minutes. Prolabel substrate (DiscoverX PathHunter Prolabel Detection Kit, User manual: 93-0180) was added as described by the manufacturers protocols. Plates were incubated at r.t. for three hours and luminescence was read using an Envision reader (Perkin Elmer) Data was analyzed and visualized using the Spotfire software package.

Sequence of IKZF2 (Q9UKS7 whole entry, the tested form may be a part): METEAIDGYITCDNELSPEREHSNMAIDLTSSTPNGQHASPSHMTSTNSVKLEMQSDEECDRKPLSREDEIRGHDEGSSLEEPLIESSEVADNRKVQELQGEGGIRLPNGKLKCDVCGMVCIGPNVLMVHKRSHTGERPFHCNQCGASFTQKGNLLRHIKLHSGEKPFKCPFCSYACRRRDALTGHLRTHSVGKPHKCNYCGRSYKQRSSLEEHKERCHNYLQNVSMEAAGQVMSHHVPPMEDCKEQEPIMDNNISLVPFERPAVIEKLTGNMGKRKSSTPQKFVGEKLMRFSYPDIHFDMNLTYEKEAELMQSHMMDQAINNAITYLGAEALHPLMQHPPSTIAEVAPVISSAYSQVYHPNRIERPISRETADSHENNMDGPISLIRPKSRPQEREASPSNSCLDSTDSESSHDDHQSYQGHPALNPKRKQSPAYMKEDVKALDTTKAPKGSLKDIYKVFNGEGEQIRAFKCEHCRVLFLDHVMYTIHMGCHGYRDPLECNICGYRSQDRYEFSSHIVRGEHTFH
Sequence of IKZF2 (Q96SW2 whole entry, the tested form may be a part): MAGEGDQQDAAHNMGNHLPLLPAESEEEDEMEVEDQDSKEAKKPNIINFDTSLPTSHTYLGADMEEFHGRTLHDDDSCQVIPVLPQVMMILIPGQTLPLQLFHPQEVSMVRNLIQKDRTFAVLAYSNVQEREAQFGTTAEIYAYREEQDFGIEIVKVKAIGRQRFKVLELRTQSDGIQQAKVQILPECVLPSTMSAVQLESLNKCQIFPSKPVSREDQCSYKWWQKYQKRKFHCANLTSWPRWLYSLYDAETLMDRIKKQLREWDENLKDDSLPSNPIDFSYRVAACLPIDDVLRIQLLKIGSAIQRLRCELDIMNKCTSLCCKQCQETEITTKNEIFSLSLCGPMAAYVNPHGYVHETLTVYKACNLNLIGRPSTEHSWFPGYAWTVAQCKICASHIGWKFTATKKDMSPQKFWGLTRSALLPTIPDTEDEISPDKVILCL
Sequence of IKZF2 (Q16531 whole entry partner, the tested form may be a part): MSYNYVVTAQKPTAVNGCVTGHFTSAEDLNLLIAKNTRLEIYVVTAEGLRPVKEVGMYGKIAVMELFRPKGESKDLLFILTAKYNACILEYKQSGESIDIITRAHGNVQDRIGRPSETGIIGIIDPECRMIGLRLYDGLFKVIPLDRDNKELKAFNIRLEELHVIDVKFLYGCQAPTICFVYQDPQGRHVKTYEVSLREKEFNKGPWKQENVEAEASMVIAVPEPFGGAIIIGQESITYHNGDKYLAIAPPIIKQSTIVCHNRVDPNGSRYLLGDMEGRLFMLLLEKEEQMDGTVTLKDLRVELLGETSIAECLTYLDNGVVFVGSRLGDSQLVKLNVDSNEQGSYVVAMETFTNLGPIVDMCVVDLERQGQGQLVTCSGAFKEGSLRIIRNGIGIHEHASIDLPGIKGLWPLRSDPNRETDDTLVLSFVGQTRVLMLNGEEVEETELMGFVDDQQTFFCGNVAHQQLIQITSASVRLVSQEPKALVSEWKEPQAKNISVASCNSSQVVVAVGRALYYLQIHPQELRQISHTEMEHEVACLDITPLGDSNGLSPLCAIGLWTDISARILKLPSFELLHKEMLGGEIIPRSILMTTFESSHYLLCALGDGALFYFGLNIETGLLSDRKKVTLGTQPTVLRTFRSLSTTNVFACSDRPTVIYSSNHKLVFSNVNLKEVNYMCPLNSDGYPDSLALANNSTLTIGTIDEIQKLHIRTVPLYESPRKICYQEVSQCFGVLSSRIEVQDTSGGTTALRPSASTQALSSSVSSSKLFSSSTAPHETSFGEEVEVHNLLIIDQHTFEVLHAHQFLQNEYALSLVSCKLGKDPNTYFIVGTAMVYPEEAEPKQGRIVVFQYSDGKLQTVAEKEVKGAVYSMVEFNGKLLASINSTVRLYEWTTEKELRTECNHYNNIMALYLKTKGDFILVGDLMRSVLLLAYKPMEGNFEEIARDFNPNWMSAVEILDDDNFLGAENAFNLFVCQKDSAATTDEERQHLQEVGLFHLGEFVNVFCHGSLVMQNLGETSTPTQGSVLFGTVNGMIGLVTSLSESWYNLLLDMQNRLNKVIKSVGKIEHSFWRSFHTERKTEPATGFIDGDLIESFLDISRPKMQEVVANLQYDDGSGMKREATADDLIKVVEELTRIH

Row | SMILES | IKZF2 % protein reduction at 10 μM, 24 h
1 | O=C1CCC(N2Cc3cc(-c4nc5[nH]c(=O)ccc5[nH]4)ccc3C2=O)C(=O)N1 (stereo not shown) [Compound I-6, 3-(1-oxo-5-(5-oxo-4,5-dihydro-1H-imidazo[4,5-b]pyridin-2-yl)isoindolin-2-yl)piperidine-2,6-dione] | 75%
2 | CCn1nc(-c2ccc3c(c2)CN(C2CCC(=O)NC2=O)C3=O)cc1C(F)(F)F (stereo not shown) [Compound I-7, 3-(5-(1-ethyl-5-(trifluoromethyl)-1H-pyrazol-3-yl)-1-oxoisoindolin-2-yl)piperidine-2,6-dione] | 10%
3 | CCNc1ccc(-c2ccc3c(c2)CN(C2CCC(=O)NC2=O)C3=O)nn1 (stereo not shown) [Compound I-22, 3-(5-(6-(ethylamino)pyridazin-3-yl)-1-oxoisoindolin-2-yl)piperidine-2,6-dione] | 60%
4 | CO[C@H]1CC[C@H](Cc2ccc(-c3ccc4c(c3)CN(C3CCC(=O)NC3=O)C4=O)nn2)CC1 (stereo partly shown) [Compound I-25] | 68%
5 | COc1cc(Cc2ccccc2)nnc1-c1ccc2c(c1)CN(C1CCC(=O)NC1=O)C2=O (stereo not shown) [Compound I-28, 3-(5-(6-benzyl-4-methoxypyridazin-3-yl)-1-oxoisoindolin-2-yl)piperidine-2,6-dione] | 73%
6 | CCn1nc(-c2ccc3c(c2)CN(C2CCC(=O)NC2=O)C3=O)cc1OC (stereo not shown) [Compound I-34, 3-(5-(1-ethyl-5-methoxy-1H-pyrazol-3-yl)-1-oxoisoindolin-2-yl)piperidine-2,6-dione] | 50%
7 | COc1cc(-c2ccc3c(c2)CN(C2CCC(=O)NC2=O)C3=O)nn1Cc1ccccc1 (stereo not shown) [Compound I-40, 3-(5-(1-benzyl-5-methoxy-1H-pyrazol-3-yl)-1-oxoisoindolin-2-yl)piperidine-2,6-dione] | 80%
8 | O=C1CCC(N2Cc3cc(-c4cccnn4)ccc3C2=O)C(=O)N1 (stereo not shown) [Compound I-42, 3-(1-oxo-5-(pyridazin-3-yl)isoindolin-2-yl)piperidine-2,6-dione] | 80%
9 | CCN(CC)Cc1ccc(-c2ccc3c(c2)CN(C2CCC(=O)NC2=O)C3=O)nn1 (stereo not shown) [Compound I-43, 3-(5-(6-((diethylamino)methyl)pyridazin-3-yl)-1-oxoisoindolin-2-yl)piperidine-2,6-dione] | 40%
10 | O=C1CCC(N2Cc3cc(-c4nc5ncccc5[nH]4)ccc3C2=O)C(=O)N1 (stereo not shown) [Compound I-46, 3-(5-(1H-imidazo[4,5-b]pyridin-2-yl)-1-oxoisoindolin-2-yl)piperidine-2,6-dione] | 80%

same assay, conditions: 10 μM, 24 h, Prolabel assay, 293GT cells

Row | SMILES | IKZF2 % protein reduction at 10 μM, 24 h
11 | O=C1CCC(N2Cc3cc(-c4cn(Cc5ccccc5)cn4)ccc3C2=O)C(=O)N1 (stereo not shown) [Compound I-1, 3-(5-(1-benzyl-1H-imidazol-4-yl)-1-oxoisoindolin-2-yl)piperidine-2,6-dione] | 0%
12 | Cc1c[nH]nc1-c1ccc2c(c1)CN(C1CCC(=O)NC1=O)C2=O (stereo not shown) [Compound I-3, 3-(5-(4-methyl-1H-pyrazol-3-yl)-1-oxoisoindolin-2-yl)piperidine-2,6-dione] | 50%
13 | Cc1cc(-c2ccc3c(c2)CN(C2CCC(=O)NC2=O)C3=O)nn1Cc1ccccc1 (stereo not shown) [Compound I-4, 3-(5-(1-benzyl-5-methyl-1H-pyrazol-3-yl)-1-oxoisoindolin-2-yl)piperidine-2,6-dione] | 50%
14 | Cc1cc(-c2ccc3c(c2)CN(C2CCC(=O)NC2=O)C3=O)nn1Cc1ccc(C#N)cc1 (stereo not shown) [Compound I-5, 4-((3-(2-(2,6-dioxopiperidin-3-yl)-1-oxoisoindolin-5-yl)-5-methyl-1H-pyrazol-1-yl)methyl)benzonitrile] | 35%
15 | O=C1CCC(N2Cc3cc(-c4cc[nH]n4)ccc3C2=O)C(=O)N1 (stereo not shown) [Compound I-8, 3-(1-oxo-5-(1H-pyrazol-3-yl)isoindolin-2-yl)piperidine-2,6-dione] | 10%
16 | O=C1CCC(N2Cc3cc(-c4ccn(Cc5ccccc5)n4)ccc3C2=O)C(=O)N1 (stereo not shown) [Compound I-9, 3-(5-(1-benzyl-1H-pyrazol-3-yl)-1-oxoisoindolin-2-yl)piperidine-2,6-dione] | 20%
17 | CCn1nc(-c2ccc3c(c2)CN(C2CCC(=O)NC2=O)C3=O)c2ccccc21 (stereo not shown) [Compound I-11, 3-(5-(1-ethyl-1H-indazol-3-yl)-1-oxoisoindolin-2-yl)piperidine-2,6-dione] | 30%
18 | O=C1CCC(N2Cc3cc(-c4nn(Cc5ccccc5)c5c4CCCC5)ccc3C2=O)C(=O)N1 (stereo not shown) [Compound I-15, 3-(5-(1-benzyl-4,5,6,7-tetrahydro-1H-indazol-3-yl)-1-oxoisoindolin-2-yl)piperidine-2,6-dione] | 50%
19 | Cc1cc(-c2ccc3c(c2)CN(C2CCC(=O)NC2=O)C3=O)n[nH]1 (stereo not shown) [Compound I-16, 3-(5-(5-methyl-1H-pyrazol-3-yl)-1-oxoisoindolin-2-yl)piperidine-2,6-dione] | 0%
20 | Cc1cn(Cc2ccccc2)nc1-c1ccc2c(c1)CN(C1CCC(=O)NC1=O)C2=O (stereo not shown) [Compound I-17, 3-(5-(1-benzyl-4-methyl-1H-pyrazol-3-yl)-1-oxoisoindolin-2-yl)piperidine-2,6-dione] | 60%
21 | O=C1CCC(N2Cc3cc(-c4n[nH]c5ccccc45)ccc3C2=O)C(=O)N1 (stereo not shown) [Compound I-18, 3-(5-(1H-indazol-3-yl)-1-oxoisoindolin-2-yl)piperidine-2,6-dione] | 40%
22 | O=C1CCC(N2Cc3cc(-c4nn(Cc5ccccc5)c5ccccc45)ccc3C2=O)C(=O)N1 (stereo not shown) [Compound I-19, 3-(5-(1-benzyl-1H-indazol-3-yl)-1-oxoisoindolin-2-yl)piperidine-2,6-dione] | 0%
23 | CCNc1cnnc(-c2ccc3c(c2)CN(C2CCC(=O)NC2=O)C3=O)c1 (stereo not shown) [Compound I-21, 3-(5-(5-(ethylamino)pyridazin-3-yl)-1-oxoisoindolin-2-yl)piperidine-2,6-dione] | 60%
24 | O=C1CCC(N2Cc3cc(-c4ccc(Cc5ccccc5)nn4)ccc3C2=O)C(=O)N1 (stereo not shown) [Compound I-24, 3-(5-(6-benzylpyridazin-3-yl)-1-oxoisoindolin-2-yl)piperidine-2,6-dione] | 90%

target: IKZF1 (Homo sapiens, UniProt Q13422+Q96SW2); test: Prolabel quantification of IKZF1 protein levels in 293GT cells; format: cell-based; settings: Prolabel assay
Sequence (Q13422 whole entry): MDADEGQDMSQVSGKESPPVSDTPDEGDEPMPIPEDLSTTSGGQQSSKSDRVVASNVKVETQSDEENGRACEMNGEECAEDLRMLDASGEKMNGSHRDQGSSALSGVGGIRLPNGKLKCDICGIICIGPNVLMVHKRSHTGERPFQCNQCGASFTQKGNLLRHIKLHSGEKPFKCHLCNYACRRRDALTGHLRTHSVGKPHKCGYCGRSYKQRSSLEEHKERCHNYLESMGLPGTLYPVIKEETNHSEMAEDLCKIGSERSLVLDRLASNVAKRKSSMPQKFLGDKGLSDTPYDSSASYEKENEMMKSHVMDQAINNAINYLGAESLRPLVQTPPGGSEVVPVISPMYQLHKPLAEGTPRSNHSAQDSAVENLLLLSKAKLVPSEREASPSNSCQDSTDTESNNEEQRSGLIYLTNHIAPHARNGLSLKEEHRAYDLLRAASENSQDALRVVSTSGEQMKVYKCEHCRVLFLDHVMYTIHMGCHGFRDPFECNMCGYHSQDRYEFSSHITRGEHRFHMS
Sequence (Q96SW2 whole entry): as the sequence (Q96SW2 whole entry, the tested form may be a part) above
Sequence (Q16531 whole entry partner): as the sequence (Q16531 whole entry partner, the tested form may be a part) above
Experimental: as §1
Lentiviral vectors, based on the Invitrogen pLenti6.2/V5 DEST backbone, were constructed that placed the prolabel tag upstream of IKZF1, IKZF2 or GSPT1 and expressed the fusion protein from a CMV promoter. […]
The levels of prolabel tagged fusion proteins in compound treated cell lines were measured as follows: […]
Day 3, Plates were removed from the incubator and allowed to equilibrate at r.t. for 30 minutes. […] Plates were incubated at r.t. for three hours and luminescence was read using an Envision reader (Perkin Elmer) Data was analyzed and visualized using the Spotfire software package.

Row | SMILES | IKZF1 degradation @ 10 μM
25 | Nc1cccc2c1C(=O)N(C1CCC(=O)NC1=O)C2=O (stereo not shown) [Control, Pomalidomide] | (80%
